Where a name gives a salt, the structure may show the parent alone. Read-outs that look alike come from different tables or passages of the source.
Legend:
[1] = Tobramycin thermostability during PCL formulation (bioactivity); type: physicochemical; conditions: after inclusion in a PCL formulation; data not shown
[2] = cited from earlier work; for Solubility in organic solvents / Water solubility / pH induced in the surrounding: Table 3, for reference; for Solubility in organic solvents: cell wraps over several lines, first line given; for Solubility: ranking of solvents, Table 2
[3] = system: Staphylococcus aureus (ATCC 25923); test: Zone of inhibition of antibiotic release samples; type: cell-based; conditions: released from PCL-coated allograft bone
Experimental: Zone of Inhibition. Immediately following the kinetics assay, filter paper disks (diameter=6 mm) were placed in the antibiotic release samples in the 96-well plate and dried overnight. Staphylococcus aureus (ATCC 25923 from American Type Culture Collection, Manassas, Va., USA) streaked Brain-Heart Infusion (BHI, BD cat#237500) agar plates were prepared for zone of inhibition experiments using pooled isolated colonies from blood agar plates diluted to a standard concentration (0.5 McFarland units). Subsequently, each drug-containing disk was placed on the bacterial-streaked agar […]. Plates were incubated for 18 hours at 37° C. Electronic calipers were used to measure the cleared (no bacterial growth) diameter surrounding each disk (zone of inhibition). If no measurable zone was present the diameter was recorded as zero.

Q: What does the source list for `NC[C@H]1O[C@H](O[C@H]2[C@H](O)[C@@H](O[C@H]3O[C@H](CO)[C@@H](O)[C@H](N)[C@H]3O)[C@H](N)C[C@@H]2N)[C@H](N)C[C@@H]1O` [Tobramycin]?
A: thermostability during formulation [1]: no loss in bioactivity; Solubility in organic solvents [2]: EtOH; Water solubility [2]: (538 mg/ml; pH induced in the surrounding [2]: Low; solubility in alcohols ([2]; in words): marginally soluble; solubility in water ([2]; in words): very water-soluble; solubility in water ([2]; in words, listed as tobramycin): highly soluble

Q: For `O=C(O)c1cn(C2CC2)c2cc(N3CCNCC3)c(F)cc2c1=O` [Ciprofloxacin], which “zones of inhibition compared to the antibiotic salts (vancomycin and oxacillin)” value [3] is on record?
A: enhanced zones of inhibition

Q: With `Cc1onc(-c2ccccc2)c1C(=O)N[C@@H]1C(=O)N2[C@@H]1SC(C)(C)[C@@H]2C(=O)O` [Oxacillin] as the compound, how does the “Solubility in organic solvents” value [2] read?
A: High: MeOH,

Q: And the Water solubility [2]?
A: (13.9 mg/ml

Q: What about the “pH induced in the surrounding” value [2] of the same compound?
A: High

Q: Which Solubility [2] does the source give for `CN[C@H](CC(C)C)C(=O)N[C@H]1C(=O)N[C@@H](CC(N)=O)C(=O)N[C@H]2C(=O)N[C@H]3C(=O)N[C@H](C(=O)N[C@H](C(=O)O)c4cc(O)cc(O)c4-c4cc3ccc4O)[C@H](O)c3ccc(c(Cl)c3)Oc3cc2cc(c3O[C@@H]2O[C@H](CO)[C@@H](O)[C@H](O)[C@H]2O[C@H]2C[C@](C)(N)[C@H](O)[C@H](C)O2)Oc2ccc(cc2Cl)[C@H]1O` [Vancomycin HCL] here?
A: water >>> chloroform & ethanol

Q: What does the source list for `CO[C@H]1/C=C/O[C@@]2(C)Oc3c(C)c(O)c4c(O)c(c(/C=N/N5CCN(C)CC5)c(O)c4c3C2=O)NC(=O)/C(C)=C\C=C\[C@H](C)[C@H](O)[C@@H](C)[C@@H](O)[C@@H](C)[C@H](OC(C)=O)[C@@H]1C` [Rifampin]?
A: zones of inhibition compared to the antibiotic salts (vancomycin and oxacillin) [3]: enhanced zones of inhibition; Solubility in organic solvents [2]: DMSO, CHCl3,

Q: Which “Solubility in organic solvents” value [2] does the source give for `CN[C@H](CC(C)C)C(=O)N[C@H]1C(=O)N[C@@H](CC(N)=O)C(=O)N[C@H]2C(=O)N[C@H]3C(=O)N[C@H](C(=O)N[C@H](C(=O)O)c4cc(O)cc(O)c4-c4cc3ccc4O)[C@H](O)c3ccc(c(Cl)c3)Oc3cc2cc(c3O[C@@H]2O[C@H](CO)[C@@H](O)[C@H](O)[C@H]2O[C@H]2C[C@](C)(N)[C@H](O)[C@H](C)O2)Oc2ccc(cc2Cl)[C@H]1O` [Vancomycin] here?
A: DMSO

Q: For Tobramycin Sulfate, which Solubility [2] is on record?
A: water >>> acetone >> ethanol
